Assay results reported in ChEMBL document CHEMBL5338791, “Discovery of Novel 1,3-Diphenylpyrazine Derivatives as Potent S-Phase Kinase-Associated Protein 2 (Skp2) Inhibitors for the Treatment of Cancer” (J Med Chem, 2023).

What follows are compounds tested against S-phase kinase-associated protein 2/Cyclin-dependent kinases regulatory subunit 1/S-phase kinase-associated protein 1 (Homo sapiens, UniProt Q13309) (assay: Inhibition of GST-tagged Skp2/Skp1 (unknown origin)/His6-tagged Cks1 (unknown origin) interaction preincubated with Skp2/Skp1 for 10 mins followed by Cks1 addition measured after 20 mins by HTRF assay).
Assay type: protein assay

S-phase kinase-associated protein 2/Cyclin-dependent kinases regulatory subunit 1/S-phase kinase-associated protein 1, sequence (P61024 whole entry): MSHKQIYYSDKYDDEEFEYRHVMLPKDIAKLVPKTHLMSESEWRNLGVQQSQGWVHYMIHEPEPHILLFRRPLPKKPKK
S-phase kinase-associated protein 2/Cyclin-dependent kinases regulatory subunit 1/S-phase kinase-associated protein 1, sequence (Q13309 whole entry): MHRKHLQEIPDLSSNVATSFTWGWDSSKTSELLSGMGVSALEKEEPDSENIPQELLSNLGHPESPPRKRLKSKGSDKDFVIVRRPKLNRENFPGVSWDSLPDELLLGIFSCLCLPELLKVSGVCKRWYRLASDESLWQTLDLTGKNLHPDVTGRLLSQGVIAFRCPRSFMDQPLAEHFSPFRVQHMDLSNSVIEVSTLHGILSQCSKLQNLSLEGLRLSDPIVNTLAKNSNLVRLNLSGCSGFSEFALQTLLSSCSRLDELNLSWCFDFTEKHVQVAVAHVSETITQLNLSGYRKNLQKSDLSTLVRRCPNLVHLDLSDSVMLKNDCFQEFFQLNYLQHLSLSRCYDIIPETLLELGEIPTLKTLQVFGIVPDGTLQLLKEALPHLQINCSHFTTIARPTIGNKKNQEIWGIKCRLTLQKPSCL
S-phase kinase-associated protein 2/Cyclin-dependent kinases regulatory subunit 1/S-phase kinase-associated protein 1, sequence (P63208 whole entry, further chain): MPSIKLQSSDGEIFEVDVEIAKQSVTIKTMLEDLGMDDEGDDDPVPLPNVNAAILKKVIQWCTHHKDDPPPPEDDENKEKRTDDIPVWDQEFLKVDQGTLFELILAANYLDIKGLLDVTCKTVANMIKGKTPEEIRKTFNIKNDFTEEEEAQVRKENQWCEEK

Q: With `Cc1ccc(S(=O)(=O)NC(=O)COCCCCN(c2cnc(-c3ccccc3)c(-c3ccccc3)n2)C(C)C)cc1` as the compound, how does the IC50 read?
A: The IC50 was over 50 µM.

Q: For `O=C(NCC1CCN(c2cnc(-c3ccccc3)c(-c3ccccc3)n2)CC1)C(F)(F)F`, which IC50 is on record?
A: Its IC50 is 15.6 µM.

Q: For `CS(=O)(=O)NC(=O)COCCNc1cnc(-c2ccccc2)c(-c2ccccc2)n1`, which IC50 is on record?
A: The IC50 was over 50 µM.

Q: `CN(C)CCNc1cnc(-c2ccccc2)c(-c2ccccc2)n1` was tested. Which IC50 did it give?
A: Its IC50 is over 50 µM.

Q: Which IC50 does the source give for `CC(C)(C)C(=O)NCC1CCN(c2cnc(-c3cn[nH]c3)c(-c3ccccc3)n2)CC1` here?
A: Its IC50 is over 25 µM.

Q: How did the IC50 turn out when `CC(C)(C)C(=O)NCC1CCN(c2cnc(-c3ccco3)c(-c3ccccc3)n2)CC1` was run?
A: The IC50 was 8.12 µM.

Q: With `O=C(N1CCOCC1)N1CCN(c2cnc(-c3ccccc3)c(-c3ccccc3)n2)CC1` as the compound, how does the IC50 read?
A: The IC50 was over 25 µM.

Q: `CN(C)c1cnc(-c2ccccc2)c(-c2ccccc2)n1` was tested. Which IC50 did it give?
A: The IC50 was 45.4 µM.

Q: With `CC(C)N(C)c1cnc(-c2ccccc2)c(-c2ccccc2)n1` as the compound, how does the IC50 read?
A: The IC50 was over 50 µM.

Q: Which IC50 does the source give for `O=C(CCl)NCC1CCN(c2cnc(-c3ccccc3)c(-c3ccccc3)n2)CC1` here?
A: The IC50 was over 25 µM.

Q: With `OCC1CCN(c2cnc(-c3ccccc3)c(-c3ccccc3)n2)CC1` as the compound, how does the IC50 read?
A: The IC50 was over 50 µM.

Q: For `CC(C)(C)OC(=O)NC1CCCN(c2cnc(-c3ccccc3)c(-c3ccccc3)n2)C1` (centres undefined), which IC50 is on record?
A: The IC50 was over 25 µM.

Q: `c1ccc(-c2ncc(NCCN3CCOCC3)nc2-c2ccccc2)cc1` was tested. Which IC50 did it give?
A: The IC50 was over 50 µM.

Q: `O=C(NCC1CCN(c2cnc(-c3ccccc3)c(-c3ccccc3)n2)CC1)c1cccs1` was tested. Which IC50 did it give?
A: Its IC50 is 8.5 µM.

Q: How did the IC50 turn out when `CN1CCN(c2cnc(-c3ccccc3)c(-c3ccccc3)n2)CC1` was run?
A: The IC50 was over 50 µM.

Q: For `C=Cc1ncc(N2CCC(CNC(=O)C(C)(C)C)CC2)nc1-c1ccccc1`, which IC50 is on record?
A: Its IC50 is over 25 µM.

Q: How did the IC50 turn out when `O=C(CBr)N1CCN(c2cnc(-c3ccccc3)c(-c3ccccc3)n2)CC1` was run?
A: Its IC50 is over 25 µM.

Q: How did the IC50 turn out when `CC(C)COC(=O)NC1CCN(c2cnc(-c3ccccc3)c(-c3ccccc3)n2)CC1` was run?
A: Its IC50 is over 25 µM.

Q: How did the IC50 turn out when `CS(=O)(=O)NC(=O)COCCCCN(Cc1ccccc1)c1cnc(-c2ccccc2)c(-c2ccccc2)n1` was run?
A: Its IC50 is over 50 µM.

Q: `O=C(NCC1CCN(c2cnc(-c3ccccc3)c(-c3ccccc3)n2)CC1)C1CC1` was tested. Which IC50 did it give?
A: Its IC50 is 3.3 µM.

Q: For `CN(C)C1CCN(c2cnc(-c3ccccc3)c(-c3ccccc3)n2)CC1`, which IC50 is on record?
A: Its IC50 is over 50 µM.

Q: Which IC50 does the source give for `CC(C)N(CCCCOCC(=O)N1CCOCC1)c1cnc(-c2ccccc2)c(-c2ccccc2)n1` here?
A: The IC50 was 52.6 µM.

Q: For `CC(C)N(CCCCOCC(=O)O)c1cnc(-c2ccccc2)c(-c2ccccc2)n1` [LASELIPAG], which IC50 is on record?
A: Its IC50 is over 50 µM.

Q: Which IC50 does the source give for `O=C(CCl)N1CCN(c2cnc(-c3ccccc3)c(-c3ccccc3)n2)CC1` here?
A: Its IC50 is 9.9 µM.

Q: With `CN(C)CCN(C)c1cnc(-c2ccccc2)c(-c2ccccc2)n1` as the compound, how does the IC50 read?
A: The IC50 was over 50 µM.

Q: Which IC50 does the source give for `CC(C)(C)C(=O)NCC1CCN(c2cnc(-c3ccccc3CO)c(-c3ccccc3)n2)CC1` here?
A: The IC50 was over 25 µM.

Q: How did the IC50 turn out when `CN(c1cnc(-c2ccccc2)c(-c2ccccc2)n1)C1CCCCC1` was run?
A: Its IC50 is over 50 µM.

Q: For `CC(C)(C)C(=O)NCC1CCN(c2cnc(-c3cncnc3)c(-c3ccccc3)n2)CC1`, which IC50 is on record?
A: Its IC50 is over 25 µM.

Q: Which IC50 does the source give for `CCC(=O)N1CCN(c2cnc(-c3ccccc3)c(-c3ccccc3)n2)CC1` here?
A: Its IC50 is 10 µM.

Q: For `C=CC(=O)NCC1CCN(c2cnc(-c3ccccc3)c(-c3ccccc3)n2)CC1`, which IC50 is on record?
A: Its IC50 is over 25 µM.

Q: `CC(C)(C)C(=O)NCC1CCN(c2cnc(C3CCCCC3)c(-c3ccccc3)n2)CC1` was tested. Which IC50 did it give?
A: The IC50 was over 25 µM.

Q: With `CN(C)c1ccc(-c2ncc(N3CCC(CNC(=O)C(C)(C)C)CC3)nc2-c2ccccc2)cc1` as the compound, how does the IC50 read?
A: Its IC50 is 5.2 µM.

Q: With `CC(C)(C)OC(=O)N1CCCN(c2cnc(-c3ccccc3)c(-c3ccccc3)n2)CC1` as the compound, how does the IC50 read?
A: The IC50 was 24.5 µM.

Q: Which IC50 does the source give for `COc1cnc(-c2ccccc2)c(-c2ccccc2)n1` here?
A: Its IC50 is over 50 µM.

Q: How did the IC50 turn out when `CC(C)(C)OC(=O)NCCCNc1cnc(-c2ccccc2)c(-c2ccccc2)n1` was run?
A: Its IC50 is over 25 µM.

Q: Which IC50 does the source give for `CC(C)(C)C(=O)NCC1CCN(c2cnc(-c3ccc(N)cc3)c(-c3ccccc3)n2)CC1` here?
A: Its IC50 is over 25 µM.

Q: Which IC50 does the source give for `O=C(NC1CCN(c2cnc(-c3ccccc3)c(-c3ccccc3)n2)CC1)OCc1ccccc1` here?
A: Its IC50 is over 25 µM.

Q: How did the IC50 turn out when `O=C(c1ccccc1)N1CCN(c2cnc(-c3ccccc3)c(-c3ccccc3)n2)CC1` was run?
A: Its IC50 is 17.7 µM.

Q: With `CC(C)(C)C(=O)NC1CCN(c2cnc(-c3ccccc3)c(-c3ccccc3)n2)CC1` as the compound, how does the IC50 read?
A: Its IC50 is 10.2 µM.

Q: `CN(CCNC(=O)OC(C)(C)C)c1cnc(-c2ccccc2)c(-c2ccccc2)n1` was tested. Which IC50 did it give?
A: Its IC50 is 20.2 µM.

Q: Which IC50 does the source give for `CNc1cnc(-c2ccccc2)c(-c2ccccc2)n1` here?
A: Its IC50 is over 50 µM.

Q: `O=C(CCCl)NCC1CCN(c2cnc(-c3ccccc3)c(-c3ccccc3)n2)CC1` was tested. Which IC50 did it give?
A: The IC50 was 13.1 µM.

Q: For `CS(=O)(=O)NC(=O)COCCCCNc1cnc(-c2ccccc2)c(-c2ccccc2)n1`, which IC50 is on record?
A: Its IC50 is over 50 µM.

Q: For `CC(C)(C)C(=O)NCC1CCN(c2cnc(-c3cccc(CO)c3)c(-c3ccccc3)n2)CC1`, which IC50 is on record?
A: The IC50 was over 25 µM.

Q: How did the IC50 turn out when `O=C(CBr)NCC1CCN(c2cnc(-c3ccccc3)c(-c3ccccc3)n2)CC1` was run?
A: Its IC50 is over 25 µM.

Q: Which IC50 does the source give for `c1ccc(-c2ncc(N3CCSCC3)nc2-c2ccccc2)cc1` here?
A: Its IC50 is over 50 µM.

Q: `CC(C)(C)C(=O)NCC1CCN(c2cnc(-c3ccncc3)c(-c3ccccc3)n2)CC1` was tested. Which IC50 did it give?
A: Its IC50 is over 25 µM.

Q: `O=C(NCC1CCN(c2cnc(-c3ccccc3)c(-c3ccccc3)n2)CC1)C1CCCCC1` was tested. Which IC50 did it give?
A: The IC50 was 8.5 µM.

Q: For `c1ccc(-c2ncc(NC3CCCCC3)nc2-c2ccccc2)cc1`, which IC50 is on record?
A: The IC50 was over 50 µM.

Q: How did the IC50 turn out when `CN(C(=O)OC(C)(C)C)C1CCN(c2cnc(-c3ccccc3)c(-c3ccccc3)n2)CC1` was run?
A: The IC50 was over 25 µM.

Q: Which IC50 does the source give for `O=C(CCCl)N1CCN(c2cnc(-c3ccccc3)c(-c3ccccc3)n2)CC1` here?
A: Its IC50 is over 25 µM.

Q: `O=C(C1CCCCC1)N1CCN(c2cnc(-c3ccccc3)c(-c3ccccc3)n2)CC1` was tested. Which IC50 did it give?
A: The IC50 was over 25 µM.

Q: With `CC(=O)NCC1CCN(c2cnc(-c3ccccc3)c(-c3ccccc3)n2)CC1` as the compound, how does the IC50 read?
A: Its IC50 is 12.4 µM.

Q: How did the IC50 turn out when `CC(C)(C)OC(=O)NC1CCN(c2cnc(-c3ccccc3)c(-c3ccccc3)n2)C1` (centres undefined) was run?
A: The IC50 was over 25 µM.

Q: `CC(C)(C)C(=O)N1CCN(c2cnc(-c3ccccc3)c(-c3ccccc3)n2)CC1` was tested. Which IC50 did it give?
A: Its IC50 is 13.2 µM.

Q: For `CC(C)(C)C(=O)NCC1CCN(c2cnc(Br)c(-c3ccccc3)n2)CC1`, which IC50 is on record?
A: Its IC50 is over 25 µM.

Q: `C=CC(=O)N1CCN(c2cnc(-c3ccccc3)c(-c3ccccc3)n2)CC1` was tested. Which IC50 did it give?
A: The IC50 was over 25 µM.

Q: How did the IC50 turn out when `CC(C)c1ncc(N2CCC(CNC(=O)C(C)(C)C)CC2)nc1-c1ccccc1` was run?
A: Its IC50 is over 25 µM.

Q: `Clc1cnc(-c2ccccc2)c(-c2ccccc2)n1` was tested. Which IC50 did it give?
A: Its IC50 is over 50 µM.

Q: With `CC1CCN(c2cnc(-c3ccccc3)c(-c3ccccc3)n2)CC1` as the compound, how does the IC50 read?
A: The IC50 was over 50 µM.

Q: `O=C(c1cccs1)N1CCN(c2cnc(-c3ccccc3)c(-c3ccccc3)n2)CC1` was tested. Which IC50 did it give?
A: Its IC50 is over 25 µM.

Q: With `Cc1ccc(S(=O)(=O)NC2CCN(c3cnc(-c4ccccc4)c(-c4ccccc4)n3)CC2)cc1` as the compound, how does the IC50 read?
A: The IC50 was over 25 µM.

Q: With `O=C(C1CC1)N1CCN(c2cnc(-c3ccccc3)c(-c3ccccc3)n2)CC1` as the compound, how does the IC50 read?
A: The IC50 was 5.8 µM.

Q: `CC(C)N(CCCCOCC(=O)Nc1ccccc1)c1cnc(-c2ccccc2)c(-c2ccccc2)n1` was tested. Which IC50 did it give?
A: The IC50 was over 50 µM.

Q: Which IC50 does the source give for `Oc1cnc(-c2ccccc2)c(-c2ccccc2)n1` here?
A: Its IC50 is over 50 µM.

Q: `O=C(NC1CCN(c2cnc(-c3ccccc3)c(-c3ccccc3)n2)CC1)Oc1ccccc1` was tested. Which IC50 did it give?
A: Its IC50 is 13.5 µM.

Q: `CCS(=O)(=O)NC1CCN(c2cnc(-c3ccccc3)c(-c3ccccc3)n2)CC1` was tested. Which IC50 did it give?
A: The IC50 was over 25 µM.

Q: How did the IC50 turn out when `NC1CCN(c2cnc(-c3ccccc3)c(-c3ccccc3)n2)CC1` was run?
A: Its IC50 is 25.2 µM.

Q: With `CC(C)N(CCCCOCC(=O)Nc1nccs1)c1cnc(-c2ccccc2)c(-c2ccccc2)n1` as the compound, how does the IC50 read?
A: The IC50 was over 50 µM.

Q: For `CC1CN(c2cnc(-c3ccccc3)c(-c3ccccc3)n2)CCN1C(=O)OC(C)(C)C` (centres undefined), which IC50 is on record?
A: The IC50 was over 25 µM.

Q: Which IC50 does the source give for `CC(C)(C)OC(=O)NC1CCN(c2cnc(-c3ccccc3)c(-c3ccccc3)n2)CC1` here?
A: Its IC50 is 13.7 µM.

Q: With `CC(C)Nc1cnc(-c2ccccc2)c(-c2ccccc2)n1` as the compound, how does the IC50 read?
A: Its IC50 is over 50 µM.

Q: With `CC(C)(C)C(=O)NCC1CCN(c2cnc(-c3ccc(C(F)(F)F)cc3)c(-c3ccccc3)n2)CC1` as the compound, how does the IC50 read?
A: The IC50 was 10.9 µM.

Q: How did the IC50 turn out when `CC(=O)N1CCN(c2cnc(-c3ccccc3)c(-c3ccccc3)n2)CC1` was run?
A: The IC50 was 17.9 µM.
